The record followed here is PubChem BioAssay (NCI).

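Results reflect a 48-hour exposure of cells in 96-well plates to compound at five concentrations. TGI denotes the concentration required for complete inhibition of growth.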

Some test systems named below: A498 renal; CAKI-1 renal; COLO 205 colon; HOP-62 NSCLC; IGROV1 ovarian; MDA-MB-435; NCI-H460 lung; SF-268 CNS; TK-10 renal; U251 CNS; UO-31 renal.
Holding throughout (test): DTP human tumour cell line panel, 48 h

On to `O=C(O[C@H](/C=C/c1ccccc1)P1(=O)N(Cc2ccccc2)[C@@H]2CCCC[C@H]2N1Cc1ccccc1)c1ccccc1`, for which the TGI was > 100 µM in the experiment on A498 renal; 6.93 µM with CAKI-1 renal; 5.08 µM in the experiment with COLO 205 colon; > 100 µM in the experiment on HOP-62 NSCLC; 15.8 µM with IGROV1 ovarian; 96.3 µM with MDA-MB-435. The TGI with NCI-H460 lung is > 100 µM; in the experiment on SF-268 CNS, > 100 µM; in the experiment on TK-10 renal, > 100 µM; in the experiment with U251 CNS it was 31.3 µM; in the experiment with UO-31 renal it was > 100 µM.

For the compound `COc1ccc(NC2Oc3cc4c(cc3C(c3cc(OC)c(OC)c(OC)c3)C2C)OCO4)cc1` (configuration not stated), the TGI is 0.92 µM in the experiment on A498 renal; > 91.5 µM in the experiment on CAKI-1 renal; 2.96 µM in the experiment on COLO 205 colon; 6.98 µM in the experiment with HOP-62 NSCLC; > 100 µM in the experiment on IGROV1 ovarian; 0.565 µM in the experiment on MDA-MB-435. Also, the total growth inhibition concentration (TGI) is > 48.5 µM with NCI-H460 lung; > 100 µM in the experiment on SF-268 CNS; > 82.8 µM in the experiment with TK-10 renal; 11.6 µM in the experiment on U251 CNS; 22.1 µM with UO-31 renal.

`Cc1cccc(C[C@@]2(SCc3ccccc3)C(C)(C)[C@@H]3CC[C@@]2(C)C3)n1`: the TGI with A498 renal came to 28.6 µM; with CAKI-1 renal it was 48.1 µM; with COLO 205 colon, 29 µM; in the experiment with HOP-62 NSCLC it was 60.2 µM; in the experiment with IGROV1 ovarian it was 28.7 µM; in the experiment on MDA-MB-435 it was 78.3 µM. The TGI was 31.3 µM in the experiment with NCI-H460 lung; 29.5 µM in the experiment with SF-268 CNS; 34.5 µM with TK-10 renal; 30.2 µM with U251 CNS; 37.2 µM in the experiment with UO-31 renal.

In the case of `CN1CN(c2ccccc2)C2(CCN(CCCC3(c4cccs4)OCCO3)CC2)C1=O`, the TGI in the experiment with A498 renal, in the experiment with CAKI-1 renal, in the experiment with COLO 205 colon, in the experiment on HOP-62 NSCLC, with IGROV1 ovarian and with MDA-MB-435 was > 100 µM in each case. In addition, the TGI in the experiment on NCI-H460 lung, in the experiment with SF-268 CNS, in the experiment on TK-10 renal, with U251 CNS and with UO-31 renal was > 100 µM in each case.

`Cc1cccc(N(CCC#N)S(=O)(=O)c2ccccc2)c1`: the TGI in the experiment with A498 renal, with CAKI-1 renal, in the experiment on COLO 205 colon, with HOP-62 NSCLC, in the experiment on IGROV1 ovarian and in the experiment on MDA-MB-435 was > 100 µM each time. For the same compound, the TGI with NCI-H460 lung, with SF-268 CNS, with TK-10 renal, with U251 CNS and with UO-31 renal was > 100 µM in each case.

As to `CN(C)c1ccc(/C(Br)=C2\OC(=O)c3ccccc32)cc1`, the TGI with A498 renal, in the experiment on CAKI-1 renal, in the experiment with COLO 205 colon, in the experiment on HOP-62 NSCLC, in the experiment on IGROV1 ovarian and with MDA-MB-435 was > 100 µM each time. Also, the TGI in the experiment with NCI-H460 lung, with SF-268 CNS, in the experiment on TK-10 renal, in the experiment with U251 CNS and in the experiment with UO-31 renal was > 100 µM throughout.

On to `O=C1C(C=NCCc2c[nH]c3ccccc23)C(C(F)(F)F)=NN1c1nc2ccccc2s1` (configuration not stated), for which the TGI with A498 renal was 42.1 µM; with CAKI-1 renal, > 100 µM; in the experiment with COLO 205 colon it was 34 µM; in the experiment on HOP-62 NSCLC, 46.9 µM; in the experiment on IGROV1 ovarian, > 100 µM; in the experiment on MDA-MB-435, 71.9 µM. Moreover, the TGI with NCI-H460 lung is 62.4 µM; in the experiment on SF-268 CNS it was > 100 µM; in the experiment with TK-10 renal, 62.1 µM; in the experiment on U251 CNS, > 100 µM; in the experiment with UO-31 renal it was > 100 µM.

`O=C(O)Cc1ccc2nc(COC(=O)c3ccccc3)sc2c1`: the TGI in the experiment with A498 renal, with CAKI-1 renal, in the experiment with COLO 205 colon, in the experiment on HOP-62 NSCLC, in the experiment with IGROV1 ovarian and in the experiment on MDA-MB-435 was > 100 µM throughout. Besides, the TGI in the experiment on NCI-H460 lung, in the experiment with SF-268 CNS, in the experiment with TK-10 renal, in the experiment with U251 CNS and in the experiment with UO-31 renal was > 100 µM throughout.

Take `CC(C)/C(Cl)=N\OC(=O)NNc1ccccc1`: the TGI is > 100 µM in the experiment on A498 renal; 28.2 µM with CAKI-1 renal; 1.63 µM in the experiment with COLO 205 colon; > 100 µM in the experiment on HOP-62 NSCLC; > 100 µM in the experiment with IGROV1 ovarian; > 100 µM with MDA-MB-435. In addition, the TGI in the experiment on NCI-H460 lung, in the experiment on SF-268 CNS, with TK-10 renal and in the experiment with U251 CNS was > 100 µM in each case.

In the case of `CCOC(=O)C(=O)N1C(C)=C(C(=O)OCC)CC(C(=O)OCC)=C1C`, the TGI with A498 renal, in the experiment on CAKI-1 renal, in the experiment on COLO 205 colon, in the experiment on HOP-62 NSCLC, in the experiment with IGROV1 ovarian and in the experiment with MDA-MB-435 was > 100 µM each time. For the same compound, the TGI in the experiment with NCI-H460 lung, in the experiment with TK-10 renal and in the experiment with UO-31 renal was > 100 µM in each case.

Regarding `CCOC(=O)c1c(SCCN2CCCC2)n(-c2ccccc2)c(=S)n(-c2ccccc2)c1=O`, the TGI in the experiment on A498 renal was determined as 22.5 µM; in the experiment with CAKI-1 renal, 5.23 µM; in the experiment on COLO 205 colon, 3.53 µM; in the experiment with HOP-62 NSCLC, 36.6 µM; with IGROV1 ovarian it was 4.47 µM; with MDA-MB-435 it was 5.95 µM. The TGI turned out to be 12.3 µM in the experiment on NCI-H460 lung, 10.1 µM in the experiment with SF-268 CNS, 3.06 µM in the experiment with TK-10 renal and 16.7 µM in the experiment on U251 CNS.

As to `CC1=CC(=O)N(n2c(C)n[nH]c2=O)C1=O`, the TGI in the experiment on A498 renal, in the experiment on CAKI-1 renal, in the experiment with COLO 205 colon, in the experiment with IGROV1 ovarian, in the experiment on MDA-MB-435 and in the experiment with NCI-H460 lung was > 100 µM in each case. For the same compound, the TGI in the experiment with SF-268 CNS, in the experiment on TK-10 renal, in the experiment on U251 CNS and with UO-31 renal was > 100 µM throughout.

Take `O=C1NC(=S)NC(=O)C1C(c1ccccc1[N+](=O)[O-])C1C(=O)NC(=S)NC1=O`: the TGI in the experiment on A498 renal, with CAKI-1 renal, in the experiment with COLO 205 colon, in the experiment on HOP-62 NSCLC, with MDA-MB-435 and in the experiment with NCI-H460 lung was > 100 µM in each case. Also, the TGI in the experiment on SF-268 CNS, in the experiment on TK-10 renal, in the experiment with U251 CNS and in the experiment on UO-31 renal was > 100 µM in each case.
